Laboratory results: US20100285959A1, “HERBICIDAL MIXTURES” (priority 2006, published 2010)

Key:
[1] = system: flint corn (ZEAMI); assay: Test 11 field trial, preemergence; type: in vivo, Zea mays L. ssp. indurata; set-up: scale not given here; settings: atrazine 1500 or metolachlor 2500 g a.i./ha alone
Text: Corn seeds (hybrid ‘Pioneer 3041’) were planted in mid spring season, 5 cm deep in a clay soil having 2.6% organic matter and a pH of 5.6. Plots were 8 m long by 1.5 m wide with rows spaced 80 cm apart. Seeds were spaced 15 cm apart within the rows. The field was managed using conventional tillage practices. […] Treatments consisted of Compound 2 or
Goosegrass was not evaluated 16 or 91 days after application.

[2] = system: corn (ZEAMD); assay: Test 31 field trial, corn hybrids at V4 growth stage; type: in vivo, Zea mays ssp. indentata; settings: postemergence, 14 DAA; for 34A15 Obs: corn hybrid 34A15; for 34N43 Obs: corn hybrid 34N43; for 35D28 Obs: corn hybrid 35D28; for 3730 Obs: corn hybrid 3730
Text: Corn seeds of hybrids Pioneer ‘34A15’, ‘34N43’, ‘35D28’, and ‘3730’ were planted in mid-spring season, approximately 3.8 cm deep in a sandy loam soil having 3.8% organic matter and a pH of 6.5. Plots were 9.1 m long by 3.0 m wide with rows spaced 76 cm apart. Seeds were spaced approximately 18 cm apart within the rows. The field was managed using conventional tillage practices. Plots were arranged with hybrid as the main block and herbicide treatments randomized within each block. Treatments were applied to corn in the V4 growth stage using a backpack sprayer delivering a spray volume of 131 L/ha with a pressure of 221 kPa. Treatments consisted of Compound 2 alone and in combination with a premix formulation of foramsulfuron and isoxadifen-ethyl, dissolved or suspended in water containing the spray adjuvants ammonium sulfate, applied at 1 kg/Ha, and methylated seed oil, applied at 1% vol/vol. Effects on the treated corn plants and untreated controls were recorded 14 days after application.

[3] = system: field violet (VIOAR); assay: Test 24 growth chamber, postemergence; type: in vivo, Viola arvensis; settings: 17 DAA
Procedure: (§1) Plants were treated postemergence at the 2-4 leaf growth stage, and each treatment was replicated three times. […] Plants were watered as needed. […] Results for barley and wheat are the means across varieties of the three replicates, and results for the weeds are the means of the three replicates.

[4] = system: winter wheat (TRZAW); assay: Test 27 field trial, postemergence; type: in vivo, Triticum aestivum; set-up: scale not given here
Text: (§2) Wheat seeds (cv. ‘Custer’) were planted in late fall season in a clay loam soil. Plots were 9 m long by 1.8 m wide. The field was managed using conventional tillage practices. […] All treatments also included a surfactant. […] Results are the means of the three replicates.

[5] = system: kochia (KCHSC); assay: Test 27 field trial, postemergence; type: in vivo, Kochia scoparia; set-up: scale not given here
Text: as §2

[6] = system: spring wheat (TRZAS); assay: Test 4 field trial, postemergence
Procedure: (§3) A field trial was conducted to evaluate the effects of mixtures of Compound 2 with commercial herbicides on spring wheat (TRZAS, Triticum aestivum L.) and several weed species. Wheat seeds (cv. ‘AC Intrepid’) were planted in late spring season, 3.8 cm deep in a loam soil having 2.7% organic matter and a pH of 7. Plots were 6 m long by 2.5 m wide. The field was managed using no-till practices. The plots were arranged in a randomized complete block design with each treatment being replicated four times. Treatments were applied postemergence 25 days after planting using a backpack sprayer delivering a spray volume of 55 L/ha using a pressure of 276 kPa. […] Compound 2 and clodinafop treatments, alone and in combination, also included a surfactant. Weed species present in the experimental plots in sufficient quantity to be evaluated included wild oat (AVEFA, Avena fatua L.), common lambsquarters (CHEAL, Chenopodium album L.), kochia (KCHSC, Kochia scoparia (L.) Schrad.), wild buckwheat (POLCO, Polygonum convolvulus L.), Russian thistle (SASKR, Salsola kali L. ssp. ruthenica (Iljin) Soo), and field pennycress (THLAR, Thlaspi arvense L.). […] Common lambsquarters was evaluated only at 14 days after application. […] Results are the means of the four replicates.

[7] = system: wild buckwheat (POLCO); assay: Test 24 growth chamber, postemergence; type: in vivo, Polygonum convolvulus; settings: 17 DAA
Procedure: as §1

[8] = system: wild buckwheat (POLCO); assay: Test 4 field trial, postemergence; type: in vivo, Polygonum convolvulus
Procedure: as §3

[9] = system: winter wheat (TRZAW); assay: Test 24 growth chamber, postemergence; type: in vivo, Triticum aestivum; settings: 17 DAA
Procedure: as §1

[10] = system: Russian thistle (SASKR); assay: Test 24 growth chamber, postemergence; type: in vivo, Salsola kali; settings: 17 DAA
Procedure: as §1

[11] = 14 DAA, Cpd 2 30 g a.i./ha alone or with clodinafop 56 or fenoxaprop 90
[12] = 14 DAA, Cpd 2 60 g a.i./ha alone or with clodinafop 56 or fenoxaprop 90
[13] = 35 DAA, Cpd 2 30 g a.i./ha alone or with clodinafop 56 or fenoxaprop 90
[14] = 35 DAA, Cpd 2 60 g a.i./ha alone or with clodinafop 56 or fenoxaprop 90

SMILES: CCNc1nc(Cl)nc(NC(C)C)n1 [Atrazine, atrazine, reference compound]
- ZEAMI Obs ([1]; 16 DAA): 0
- ZEAMI Obs ([1]; 30 DAA): 0
- ZEAMI Obs ([1]; 44 DAA): 0
- ZEAMI Obs ([1]; 62 DAA): 0
- ZEAMI Obs ([1]; 91 DAA): 0

SMILES: COC(=O)c1nc(C2CC2)nc(N)c1Cl [Compound 2, methyl 6-amino-5-chloro-2-cyclopropyl-4-pyrimidinecarboxylate]
- 34A15 Obs ([2]; Cpd 2 30 g a.i./ha): 25
- 34A15 Obs ([2]; Cpd 2 60 g a.i./ha): 30
- 34N43 Obs ([2]; Cpd 2 30 g a.i./ha): 15%
- 34N43 Obs ([2]; Cpd 2 60 g a.i./ha): 20%
- 35D28 Obs ([2]; Cpd 2 30 g a.i./ha): 60
- 35D28 Obs ([2]; Cpd 2 60 g a.i./ha): 65
- 3730 Obs ([2]; Cpd 2 30 g a.i./ha): 60
- 3730 Obs ([2]; Cpd 2 60 g a.i./ha): 75
- VIOAR Obs (scale 0 to 100) ([3]; Cpd 2 4 g a.i./ha): 47
- VIOAR Obs (scale 0 to 100) ([3]; Cpd 2 8 g a.i./ha): 62
- VIOAR Obs (scale 0 to 100) ([3]; Cpd 2 16 g a.i./ha): 72
- TRZAW Obs ([4]; 16 DAA, 15 g a.i./ha): 2
- TRZAW Obs ([4]; 16 DAA, 30 g a.i./ha): 10
- TRZAW Obs ([4]; 16 DAA, 45 g a.i./ha): 17
- TRZAW Obs ([4]; 28 DAA, 15 g a.i./ha): 0
- TRZAW Obs ([4]; 28 DAA, 30 g a.i./ha): 12
- TRZAW Obs ([4]; 28 DAA, 45 g a.i./ha): 25
- TRZAW Obs ([4]; 49 DAA, 15 g a.i./ha): 3
- TRZAW Obs ([4]; 49 DAA, 30 g a.i./ha): 17
- TRZAW Obs ([4]; 49 DAA, 45 g a.i./ha): 35
- KCHSC Obs ([5]; 16 DAA, 15 g a.i./ha): 30
- KCHSC Obs ([5]; 16 DAA, 30 g a.i./ha): 65
- KCHSC Obs ([5]; 16 DAA, 45 g a.i./ha): 78
- KCHSC Obs ([5]; 28 DAA, 15 g a.i./ha): 43
- KCHSC Obs ([5]; 28 DAA, 30 g a.i./ha): 79
- KCHSC Obs ([5]; 28 DAA, 45 g a.i./ha): 94
- KCHSC Obs ([5]; 49 DAA, 15 g a.i./ha): 32
- KCHSC Obs ([5]; 49 DAA, 30 g a.i./ha): 73
- KCHSC Obs ([5]; 49 DAA, 45 g a.i./ha): 96
- TRZAS Obs [6, 11]: 0
- TRZAS Obs [6, 12]: 0
- TRZAS Obs [6, 13]: 2
- TRZAS Obs [6, 14]: 6
- TRZAS Obs ([6]; 55 DAA, Cpd 2 30 g a.i./ha alone or with clodinafop 56 or fenoxaprop 90): 3
- TRZAS Obs ([6]; 55 DAA, Cpd 2 60 g a.i./ha alone or with clodinafop 56 or fenoxaprop 90): 11
- POLCO Obs (scale 0 to 100) ([7]; Cpd 2 4 g a.i./ha): 55
- POLCO Obs (scale 0 to 100) ([7]; Cpd 2 8 g a.i./ha): 60
- POLCO Obs (scale 0 to 100) ([7]; Cpd 2 16 g a.i./ha): 70
- POLCO Obs [8, 11]: 61
- POLCO Obs [8, 12]: 63
- POLCO Obs [8, 13]: 51
- POLCO Obs [8, 14]: 55
- TRZAW Obs (scale 0 to 100) ([9]; Cpd 2 4 g a.i./ha): 21
- TRZAW Obs (scale 0 to 100) ([9]; Cpd 2 8 g a.i./ha): 33
- TRZAW Obs (scale 0 to 100) ([9]; Cpd 2 16 g a.i./ha): 39
- SASKR Obs (scale 0 to 100) ([10]; Cpd 2 4 g a.i./ha): 63
- SASKR Obs (scale 0 to 100) ([10]; Cpd 2 8 g a.i./ha): 75
- SASKR Obs (scale 0 to 100) ([10]; Cpd 2 16 g a.i./ha): 75
